Results from PubChem BioAssay AID1963979 (Molecular Pharmacology Branch, DTP, NCI, 2024).

Tested on: 361931-004-R-J1-PDC multicell spheroid viability
Test: Anticancer human tumor 361931-004-R-J1-PDC patient-derived colon adenocarcinoma cell line growth inhibition [PI3K]
Details: for IC50: curve of first compound; for viability, T/C: stronger effect = lower value
How it was run: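 Viability of mixed-cell spheroids was determined after exposure to pairwise combinations, one partner being inavolisib, alpelisib, duvelisib or copanlisib. Highest tested concentration matched clinical Cmax where known and 10 microM where not, descending in half-log steps.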

[1] = second compound 0.0316 µM, first compound 0.0316 µM
[2] = second compound 0.0316 µM, first compound 0.1 µM
[3] = second compound 0.1 µM, first compound 0.0316 µM
[4] = second compound 0.1 µM, first compound 0.1 µM
[5] = second compound 0.316 µM, first compound 0.0316 µM
[6] = second compound 0.316 µM, first compound 0.1 µM
[7] = second compound 1 µM, first compound 0.0316 µM
[8] = second compound 1 µM, first compound 0.1 µM
[9] = second compound 3.16 µM, first compound 0.0316 µM
[10] = second compound 3.16 µM, first compound 0.1 µM
[11] = second compound 10 µM, first compound 0.0316 µM
[12] = second compound 10 µM, first compound 0.1 µM
[13] = second compound 0.0316 µM, first compound 0.316 µM
[14] = second compound 0.0316 µM, first compound 1 µM
[15] = second compound 0.0316 µM, first compound 3.16 µM
[16] = second compound 0.0316 µM, first compound 10 µM
[17] = second compound 0.1 µM, first compound 0.316 µM
[18] = second compound 0.1 µM, first compound 1 µM
[19] = second compound 0.1 µM, first compound 3.16 µM
[20] = second compound 0.1 µM, first compound 10 µM
[21] = second compound 0.316 µM, first compound 0.316 µM
[22] = second compound 0.316 µM, first compound 1 µM
[23] = second compound 0.316 µM, first compound 3.16 µM
[24] = second compound 0.316 µM, first compound 10 µM
[25] = second compound 1 µM, first compound 0.316 µM
[26] = second compound 1 µM, first compound 1 µM
[27] = second compound 1 µM, first compound 3.16 µM
[28] = second compound 1 µM, first compound 10 µM
[29] = second compound 3.16 µM, first compound 0.316 µM
[30] = second compound 3.16 µM, first compound 1 µM
[31] = second compound 3.16 µM, first compound 3.16 µM
[32] = second compound 3.16 µM, first compound 10 µM
[33] = second compound 10 µM, first compound 0.316 µM
[34] = second compound 10 µM, first compound 1 µM
[35] = second compound 10 µM, first compound 3.16 µM
[36] = second compound 10 µM, first compound 10 µM
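Also: spheroids exposed to agents for seven days before readout.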

In the case of CC(=O)c1c(C)c2cnc(Nc3ccc(N4CCNCC4)cn3)nc2n(C2CCCC2)c1=O + CC(Nc1ncnc2nc[nH]c12)c1cc2cccc(Cl)c2c(=O)n1-c1ccccc1, the IC50 (second compound 0.0316 µM) is reported as > 0.1 µM, the IC50 (second compound 0.1 µM) is reported as > 0.1 µM and the IC50 (second compound 0.316 µM) is reported as > 0.1 µM. The IC50 (second compound 1 µM) was > 0.1 µM, the IC50 (second compound 3.16 µM) was > 0.1 µM and the IC50 (second compound 10 µM) was > 0.1 µM. It also gave a viability, T/C (second compound 0.0316 µM, first compound 0.000316 µM) of 98.3%, a viability, T/C (second compound 0.0316 µM, first compound 0.001 µM) of 103% and a viability, T/C (second compound 0.0316 µM, first compound 0.00316 µM) of 97.5%. The viability, T/C (second compound 0.0316 µM, first compound 0.01 µM) was 97.2%, the viability, T/C [1] was 102% and the viability, T/C [2] was 93.2%. The viability, T/C (second compound 0.1 µM, first compound 0.000316 µM) was 103%, the viability, T/C (second compound 0.1 µM, first compound 0.001 µM) was 103% and the viability, T/C (second compound 0.1 µM, first compound 0.00316 µM) was 98.4%. The viability, T/C (second compound 0.1 µM, first compound 0.01 µM) was 104%, the viability, T/C [3] was 99.5% and the viability, T/C [4] was 98.4%. The viability, T/C (second compound 0.316 µM, first compound 0.000316 µM) was 108%, the viability, T/C (second compound 0.316 µM, first compound 0.001 µM) was 97.7% and the viability, T/C (second compound 0.316 µM, first compound 0.00316 µM) was 105%. The viability, T/C (second compound 0.316 µM, first compound 0.01 µM) was 97.9%, the viability, T/C [5] was 103% and the viability, T/C [6] was 97.5%. It also gave a viability, T/C (second compound 1 µM, first compound 0.000316 µM) of 101%, a viability, T/C (second compound 1 µM, first compound 0.001 µM) of 100% and a viability, T/C (second compound 1 µM, first compound 0.00316 µM) of 101%. It also gave a viability, T/C (second compound 1 µM, first compound 0.01 µM) of 105%, a viability, T/C [7] of 108% and a viability, T/C [8] of 89%. The viability, T/C (second compound 3.16 µM, first compound 0.000316 µM) was 96.2%, the viability, T/C (second compound 3.16 µM, first compound 0.001 µM) was 100% and the viability, T/C (second compound 3.16 µM, first compound 0.00316 µM) was 97.2%. For the same compound, the viability, T/C (second compound 3.16 µM, first compound 0.01 µM) was 93.7%, the viability, T/C [9] was 100% and the viability, T/C [10] was 81.3%. The viability, T/C (second compound 10 µM, first compound 0.000316 µM) was 92.7%, the viability, T/C (second compound 10 µM, first compound 0.001 µM) was 107% and the viability, T/C (second compound 10 µM, first compound 0.00316 µM) was 96.5%. It also gave a viability, T/C (second compound 10 µM, first compound 0.01 µM) of 94.1%, a viability, T/C [11] of 101% and a viability, T/C [12] of 80.5%.

Work on CC1(C)CCC(Nc2ncc(C(F)(F)F)c(-c3c[nH]c4c(P(C)(C)=O)c(C#N)ccc34)n2)CN1 (stereo unspecified) + CC(Nc1ncnc2nc[nH]c12)c1cc2cccc(Cl)c2c(=O)n1-c1ccccc1 yielded an IC50 (second compound 0.0316 µM) of 6.27 µM, an IC50 (second compound 0.1 µM) of 5.92 µM and an IC50 (second compound 0.316 µM) of 5.95 µM. It also gave an IC50 (second compound 1 µM) of 5.58 µM, an IC50 (second compound 3.16 µM) of 5.2 µM and an IC50 (second compound 10 µM) of 4.73 µM. The viability, T/C [1] was 106%, the viability, T/C [2] was 108% and the viability, T/C [13] was 104%. It also gave a viability, T/C [14] of 101%, a viability, T/C [15] of 103% and a viability, T/C [16] of 13.7%. It also gave a viability, T/C [3] of 122%, a viability, T/C [4] of 103% and a viability, T/C [17] of 96%. For the same compound, the viability, T/C [18] was 101%, the viability, T/C [19] was 93.4% and the viability, T/C [20] was 14.5%. The viability, T/C [5] was 108%, the viability, T/C [6] was 106% and the viability, T/C [21] was 99.4%. For the same compound, the viability, T/C [22] was 98%, the viability, T/C [23] was 95.8% and the viability, T/C [24] was 12.4%. It also gave a viability, T/C [7] of 110%, a viability, T/C [8] of 101% and a viability, T/C [25] of 98.8%. For the same compound, the viability, T/C [26] was 98.4%, the viability, T/C [27] was 86.9% and the viability, T/C [28] was 12.8%. It also gave a viability, T/C [9] of 105%, a viability, T/C [10] of 94.9% and a viability, T/C [29] of 95.8%. It also gave a viability, T/C [30] of 94.1%, a viability, T/C [31] of 80.6% and a viability, T/C [32] of 10.6%. It also gave a viability, T/C [11] of 93.1%, a viability, T/C [12] of 90.8% and a viability, T/C [33] of 88.9%. The viability, T/C [34] was 88%, the viability, T/C [35] was 74% and the viability, T/C [36] was 5.6%.

In the case of C#Cc1c(F)ccc2cc(O)cc(-c3ncc4c(N5CC6CCC(C5)N6)nc(OCC56CCCN5CC(F)C6)nc4c3F)c12 (stereo unspecified) + Cc1nc(NC(=O)N2CCCC2C(N)=O)sc1-c1ccnc(C(C)(C)C(F)(F)F)c1, the IC50 (second compound 0.0316 µM) is reported as > 10 µM, the IC50 (second compound 0.1 µM) is reported as > 10 µM and the IC50 (second compound 0.316 µM) is reported as > 10 µM. For the same compound, the IC50 (second compound 1 µM) was > 10 µM, the IC50 (second compound 3.16 µM) was 3.52 µM and the IC50 (second compound 10 µM) was 0.219 µM. For the same compound, the viability, T/C [1] was 104%, the viability, T/C [2] was 90.5% and the viability, T/C [13] was 91.6%. The viability, T/C [14] was 83%, the viability, T/C [15] was 79.7% and the viability, T/C [16] was 69.3%. For the same compound, the viability, T/C [3] was 109%, the viability, T/C [4] was 98.3% and the viability, T/C [17] was 93.7%. It also gave a viability, T/C [18] of 88.9%, a viability, T/C [19] of 88.2% and a viability, T/C [20] of 61.8%. It also gave a viability, T/C [5] of 91.6%, a viability, T/C [6] of 86.5% and a viability, T/C [21] of 78.6%. It also gave a viability, T/C [22] of 69.5%, a viability, T/C [23] of 73.5% and a viability, T/C [24] of 58%. It also gave a viability, T/C [7] of 89.2%, a viability, T/C [8] of 86.2% and a viability, T/C [25] of 70.3%. For the same compound, the viability, T/C [26] was 62.2%, the viability, T/C [27] was 68.2% and the viability, T/C [28] was 58.6%. The viability, T/C [9] was 85.4%, the viability, T/C [10] was 77.9% and the viability, T/C [29] was 65.5%. For the same compound, the viability, T/C [30] was 53.9%, the viability, T/C [31] was 56.5% and the viability, T/C [32] was 42%. The viability, T/C [11] was 62.2%, the viability, T/C [12] was 48% and the viability, T/C [33] was 49%. For the same compound, the viability, T/C [34] was 40.2%, the viability, T/C [35] was 39.2% and the viability, T/C [36] was 22.1%.
